In US20220389003A1, “4-SUBSTITUTED INDOLE AND INDAZOLE SULFONAMIDO DERIVATIVES AS PARG INHIBITORS” (IDEAYA BIOSCIENCES, INC., priority 2019, published 2022):

Legend:
PARG [1] = molecular target: T1, PARG (Homo sapiens, UniProt Q86W56); assay: Inhibition of PARG enzymatic assay (TR-FRET enzymatic IC50 assay); format: biochemical; design: purchased Peak Proteins; conditions: hPARG 250 pM, biotinylated-PARylated PARP substrate 30 nM
Outline: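 Compound preincubated 1 h with 250 pM His-tagged hPARG, then 30 nM biotinylated PARylated hPARP1 substrate added for 10 min; buffer 50 mM Tris-HCl pH 7.4, EDTA/EGTA, 1 mM DTT, 23° C. TR-FRET read after 1 h with anti-His ULight antibody and streptavidin-europium; inhibition scaled between DMSO and no-enzyme controls.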

PARG [2] = molecular target: T1, PARG; assay: Inhibition of PARG cellular assay (PAR foci in HeLa cells after MMS); format: cell-based; design: endogenous in cells; host or cells: HeLa; conditions: compound 1 h then MMS 1 h
Outline: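 HeLa cells pretreated with compound for 1 h, then given MMS for a further 1 h, fixed and immunostained for PAR polymer. High-content imaging quantified nuclear PAR foci intensity (PAR Foci IC50) and percent cells with foci signal >1.3 (PAR % positive IC50).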

[3] = tested on: HCC1806-XRCC1 KD (knock down) cells; assay: Cellular viability assay (Cell Titer-Glo); format: cell-based; conditions: 96 h, HCC1806-shXRCC1 cells, 4 days of incubation, read-out: PARGi cell viability
Outline: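 XRCC1-knockdown HCC1806 cells seeded 24 h before dosing; 9-point 1:3 dilution from 30 μM top concentration, duplicates, 4-day incubation. Viability by CellTiter-Glo luminescence, normalized to DMSO wells as % of control; curves fit with 4-parameter inhibition model.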

T1 sequence (Q86W56 whole entry): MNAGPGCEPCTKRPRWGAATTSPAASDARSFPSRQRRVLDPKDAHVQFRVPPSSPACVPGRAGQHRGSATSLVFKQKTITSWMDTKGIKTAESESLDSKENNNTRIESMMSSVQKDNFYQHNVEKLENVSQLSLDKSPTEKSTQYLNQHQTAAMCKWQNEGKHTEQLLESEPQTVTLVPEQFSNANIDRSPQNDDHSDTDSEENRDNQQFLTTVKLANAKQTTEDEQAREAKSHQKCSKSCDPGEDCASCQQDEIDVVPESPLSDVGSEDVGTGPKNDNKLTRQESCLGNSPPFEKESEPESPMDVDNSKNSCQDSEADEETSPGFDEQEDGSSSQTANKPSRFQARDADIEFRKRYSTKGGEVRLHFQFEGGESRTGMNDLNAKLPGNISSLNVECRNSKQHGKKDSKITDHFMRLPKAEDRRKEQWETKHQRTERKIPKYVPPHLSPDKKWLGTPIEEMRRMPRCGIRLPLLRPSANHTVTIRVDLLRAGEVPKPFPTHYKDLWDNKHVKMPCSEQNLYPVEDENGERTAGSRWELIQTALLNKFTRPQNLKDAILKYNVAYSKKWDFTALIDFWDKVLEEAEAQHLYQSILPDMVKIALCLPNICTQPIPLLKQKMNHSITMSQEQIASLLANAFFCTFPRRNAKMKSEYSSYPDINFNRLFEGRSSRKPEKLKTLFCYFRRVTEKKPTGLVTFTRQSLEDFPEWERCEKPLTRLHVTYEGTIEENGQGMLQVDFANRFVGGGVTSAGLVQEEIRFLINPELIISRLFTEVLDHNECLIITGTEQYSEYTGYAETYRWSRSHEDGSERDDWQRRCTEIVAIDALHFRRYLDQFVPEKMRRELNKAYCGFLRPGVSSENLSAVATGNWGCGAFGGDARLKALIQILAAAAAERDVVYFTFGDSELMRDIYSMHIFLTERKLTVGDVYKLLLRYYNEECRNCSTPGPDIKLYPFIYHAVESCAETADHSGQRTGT

Compound	IC50 (PARG [1]) [µM]	IC50 (PARG [2]) [µM]	IC50 [3] [µM]
N#CC1(NS(=O)(=O)c2cc(N3CCC4(CCCO4)CC3)c3cnn(-c4nnc(C(F)F)s4)c3c2)CC1 [Example 44, 1-[({1-[5-(difluoromethyl)(1,3,4-thiadiazol-2-yl)]-4-(1-oxa-8-azaspiro[4.5]dec-8-yl)-1H-indazol-6-yl}sulfonyl)amino]cyclopropanecarbonitrile]	0.3 to 1	1 to 10	1 to 10
CN(CC(F)F)C(=O)N1CCN(c2cc(S(=O)(=O)NC3(C#N)CC3)cc3c2cnn3-c2nnc(C(F)F)s2)CC1 [Example 67, N-(2,2-difluoroethyl)[4-(1-[5-(difluoromethyl)(1,3,4-thiadiazol-2-yl)]-6-{[(cyanocyclopropyl)amino]sulfonyl}(1H-indazol-4-yl))piperazinyl]-N-methylcarboxamide]	≤ 0.1	≤ 0.1	< 1
Cn1cc(-c2cc(S(=O)(=O)NC3(C#N)CC3)cc3c2cnn3-c2nnc(C(F)F)s2)ccc1=O [Example 5, N-(1-cyanocyclopropyl)-1-(5-(difluoromethyl)-1,3,4-thiadiazol-2-yl)-4-(1-methyl-6-oxo-1,6-dihydropyridin-3-yl)-1H-indazole-6-sulfonamide]	≤ 0.1	0.3 to 1	20 to 30
N#CC1(NS(=O)(=O)c2cc(N3CCN4C(=O)CC[C@H]4C3)c3cnn(-c4nnc(C(F)F)s4)c3c2)CC1 [Example 59, 1-[({4-((1S)-7-oxo-3,6-diazabicyclo[4.3.0]non-3-yl)-1-[5-(difluoromethyl)(1,3,4-thiadiazol-2-yl)]-1H-indazol-6-yl}sulfonyl)amino]cyclopropanecarbonitrile]	≤ 0.1	0.3 to 1	1 to 10
CCCN(C)C(=O)N1CCN(c2cc(S(=O)(=O)NC3(C#N)CC3)cc3c2cnn3-c2nnc(C(F)F)s2)CC1 [Example 77, [4-(1-[5-(difluoromethyl)(1,3,4-thiadiazol-2-yl)]-6-{[(cyanocyclopropyl)amino]sulfonyl}(1H-indazol-4-yl))piperazinyl]-N-methyl-N-propylcarboxamide]	≤ 0.1	≤ 0.1	< 1
N#CC1(NS(=O)(=O)c2cc(N3CCC(CO)CC3)c3cnn(-c4nnc(C(F)F)s4)c3c2)CC1 [Example 47, 1-[({1-[5-(difluoromethyl)(1,3,4-thiadiazol-2-yl)]-4-[4-(hydroxymethyl)piperidyl]-1H-indazol-6-yl}sulfonyl)amino]cyclopropanecarbonitrile]	≤ 0.1	0.3 to 1	1 to 10
N#CC1(NS(=O)(=O)c2cc(C3CCC4(CC3)COC4)c3cnn(-c4nnc(C(F)F)s4)c3c2)CC1 [Example 8, 1-[({1-[5-(difluoromethyl)(1,3,4-thiadiazol-2-yl)]-4-(2-oxaspiro[3.5]non-7-yl)-1H-indazol-6-yl}sulfonyl)amino]cyclopropanecarbonitrile]	0.1 to 0.3	≤ 0.1	1 to 10
CC1(NS(=O)(=O)c2cc(N3CCC4(CC3)COC4)c3cnn(-c4nnc(C(F)F)s4)c3c2)CC1 [Example 23, ({1-[5-(difluoromethyl)(1,3,4-thiadiazol-2-yl)]-4-(2-oxa-7-azaspiro[3.5]non-7-yl)(1H-indazol-6-yl)}sulfonyl)(methylcyclopropyl)amine]	≤ 0.1	≤ 0.1	< 1
N#CC1(NS(=O)(=O)c2cc(-c3ccccc3)c3cnn(-c4nnc(C(F)F)s4)c3c2)CC1 [Example 1, 1-[({1-[5-(difluoromethyl)(1,3,4-thiadiazol-2-yl)]-4-phenyl-1H-indazol-6-yl}sulfonyl)amino]cyclopropanecarbonitrile]	1 to 10	1 to 10	20 to 30

The remaining lines, values ahead:

IC50 (PARG [1]) [µM]	IC50 (PARG [2]) [µM]	IC50 [3] [µM]	Compound
≤ 0.1	≤ 0.1	1 to 10	N#CC1(NS(=O)(=O)c2cc(N3CCN(C(=O)c4ccccc4)CC3)c3cnn(-c4nnc(C(F)F)s4)c3c2)CC1 [Example 96, 1-[({1-[5-(difluoromethyl)(1,3,4-thiadiazol-2-yl)]-4-[4-(phenylcarbonyl)piperazinyl]-1H-indazol-6-yl}sulfonyl)amino]cyclopropanecarbonitrile]
≤ 0.1	≤ 0.1	< 1	C[C@@H]1CN(c2cc(S(=O)(=O)NC3(C#N)CC3)cc3c2cnn3-c2nnc(C(F)F)s2)CCN1C(=O)C1(C)CCC1 [Example 109, 1-{[(4-{(3R)-3-methyl-4-[(methylcyclobutyl)carbonyl]piperazinyl}-1-[5-(difluoro-methyl)(1,3,4-thiadiazol-2-yl)]-1H-indazol-6-yl)sulfonyl]amino}cyclopropane carbonitrile]
≤ 0.1	0.1 to 0.3	1 to 10	N#CC1(NS(=O)(=O)c2cc(N3CCN(C(=O)C4CCN(CC(F)F)CC4)CC3)c3cnn(-c4nnc(C(F)F)s4)c3c2)CC1 [Example 107, 1-({[4-(4-{[1-(2,2-difluoroethyl)(4-piperidyl)]carbonyl}piperazinyl)-1-[5-(difluoro-methyl)(1,3,4-thiadiazol-2-yl)]-1H-indazol-6-yl]sulfonyl}amino)cyclopropane carbonitrile]
≤ 0.1	≤ 0.1	1 to 10	C[C@@H]1CN(c2cc(S(=O)(=O)NC3(C#N)CC3)cc3c2cnn3-c2nnc(C(F)F)s2)CCN1C(=O)C1CCN(CC(F)F)CC1 [Example 106, 1-({[4-((3R)-4-{[1-(2,2-difluoroethyl)(4-piperidyl)]carbonyl}-3-methylpiperazinyl)-1-[5-(difluoromethyl)(1,3,4-thiadiazol-2-yl)]-1H-indazol-6-yl]sulfonyl}amino) cyclopropanecarbonitrile]
≤ 0.1	1 to 10	1 to 10	CN1CCC[C@@H]1C(=O)N1CCN(c2cc(S(=O)(=O)NC3(C#N)CC3)cc3c2cnn3-c2nnc(C(F)F)s2)CC1 [Example 90, 1-{[(4-{4-[((2R)-1-methylpyrrolidin-2-yl)carbonyl]piperazinyl}-1-[5-(difluoromethyl)(1,3,4-thiadiazol-2-yl)]-1H-indazol-6-yl)sulfonyl]amino}cyclopropanecarbonitrile]
0.3 to 1	0.3 to 1	1 to 10	N#CC1(NS(=O)(=O)c2cc(N3CCN(c4cccnc4)CC3)c3cnn(-c4nnc(C(F)F)s4)c3c2)CC1 [Example 94, 1-[({1-[5-(difluoromethyl)(1,3,4-thiadiazol-2-yl)]-4-(4-(3-pyridyl)piperazinyl)-1H-indazol-6-yl}sulfonyl)amino]cyclopropanecarbonitrile]
≤ 0.1	≤ 0.1	< 1	CC1(C(=O)N2CCN(c3cc(S(=O)(=O)NC4(C#N)CC4)cc4c3cnn4-c3nnc(C(F)F)s3)CC2)CC1 [Example 111, 1-{[(1-[5-(difluoromethyl)(1,3,4-thiadiazol-2-yl)]-4-{4-[(methylcyclopropyl)carbonyl]piperazinyl}-1H-indazol-6-yl)sulfonyl]amino}cyclopropanecarbonitrile]
≤ 0.1	0.1 to 0.3	< 1	CCC(C)C(=O)N1CCN(c2cc(S(=O)(=O)NC3(C#N)CC3)cc3c2cnn3-c2nnc(C(F)F)s2)C[C@H]1C (stereo partly drawn) [Example 110, 1-[({4-[(3R)-3-methyl-4-(2-methylbutanoyl)piperazinyl]-1-[5-(difluoromethyl)-(1,3,4-thiadiazol-2-yl)]-1H-indazol-6-yl}sulfonyl)amino]cyclopropane carbonitrile]
≤ 0.1	≤ 0.1	< 1	C[C@H]1CN(c2cc(S(=O)(=O)NC3(C#N)CC3)cc3c2cnn3-c2nnc(C(F)F)s2)CCN1C(=O)N(C)C [Example 83, [(2S)-4-(1-[5-(difluoromethyl)(1,3,4-thiadiazol-2-yl)]-6-{[(cyanocyclopropyl)amino]sulfonyl}(1H-indazol-4-yl))-2-methylpiperazinyl]-N,N-dimethylcarboxamide]
≤ 0.1	0.1 to 0.3	1 to 10	Cc1nnc(-n2ncc3c(N4CCN(C(=O)C(C)C)CC4)cc(S(=O)(=O)NC4(C#N)CC4)cc32)s1 [Example 97, 1-[({1-(5-methyl(1,3,4-thiadiazol-2-yl))-4-[4-(2-methylpropanoyl)piperazinyl]-1H-indazol-6-yl}sulfonyl)amino]cyclopropanecarbonitrile]
